Experimental data published in publication PMC12013143, “Ionic liquid-iontophoresis mediates transdermal delivery of sparingly soluble drugs” (Drug Delivery, 2025).
Values after ≈ are worked out from the molar mass of the structure shown. Values joined by “and” are separate entries in the source; they are usually repeats but may differ in a detail not shown here. Equal values may be shown once.

Columns and labels:
[1] = In vitro skin permeation/retention with iontophoresis (IS) or IL-IS, horizontal diffusion cells; type: in vitro ADME, rat; conditions: for Permeation applying IL-IS relative to IL alone / Permeation applying IL-IS relative to IS alone / Effect of current intensity on retention amount / Effect of current intensity on transdermal permeation / Retention in negative current relative to positive current / Permeation in negative current relative to positive current / Increase of transdermal permeation by IL-IS / Increase of transdermal permeation by IL: 20% [Cho] [Cin]; for Effect of current intensity on retention amount / Effect of current intensity on transdermal permeation: negative current 0.1–0.3 mA; for Retention in negative current relative to positive current / Permeation in negative current relative to positive current: 0.3 mA; for Permeation in negative current relative to positive current / Increase of transdermal permeation by IL-IS / Increase of transdermal permeation by IL / Increase of transdermal permeation by IS: 10 h cumulative penetration; for Increase of transdermal permeation by IL: no current; for Increase of transdermal permeation by IS: no IL
Method: (§1) Anesthetize rats by intraperitoneal injection with a dose of 1.0 g/kg urethane solution. Then remove the back hair using a pet shaver. Carefully remove the muscle tissue from the inner side of the skin with a surgical knife, cut it into small pieces, soak it in physiological saline for 30 min, cover the diffusion cell opening, and secure it with a clip. Intact rat skin was positioned between two cells, with the SC facing the donor compartment. The drugs were precisely measured at a weight of 4.00 mg each and subsequently dissolved in 4 mL of ILs or other control solutions, and added in donor compartment. The 0.01 M PBS (pH 6.8, 4.0 mL) was chosen as receptor medium. Sampling of ILs was conducted at various time points, specifically at 0, 4, 6, 8, 10, and 24 h. Following each sampling, 2.0 mL (all receptor medium was removed at the 10-h time point) of receptor medium was replaced with fresh PBS solution. The transdermal penetration of IS or IL-IS was conducted using an electroosmosis apparatus (Dajia DL-Z, China) to ensure a consistent current intensity of 0–0.5 mA. […] A receiving solution (2.0 mL) was collected at 1, 2, 4, 6, 8, and 10 h. After skin permeation experiments, rat skins were subsequently removed from cells, cut into pieces, and immersed in methanol for 12 h. The samples were then diluted with mobile phase at a ratio of 1:10. Following centrifugation for 10 min at 9000 rpm, the resulting supernatants were analyzed using HPLC, as previously described.
(§2) The drug skin permeation amount of solution system was calculated through concentration and volume of each sampling point: Q=[Cn×Vo+∑i=1n−1Ci×V]/S
(§3) In this experiment, Vo: 4.0 mL; V: 2.0 mL (24 h point: 4 mL); S: 0.74 cm^2.
(§4) The drug skin retention amount was calculated as follows: R=M/S

[2] = In vitro skin permeation/retention with IL alone, horizontal diffusion cells; type: in vitro ADME; conditions: excised rat skin; for Permeation/retention enhancement effect on apremilast: 20% IL (label = IL); for Effect on promoting permeation/retention of indomethacin: 20% IL or 1%SDS (label = vehicle)
Method: as §1, §2, §3, §4

[3] = General properties of ILs diluted to 20% (w/w) with water: pH, electrical conductivity, viscosity; type: physicochemical; conditions: 20%IL in water
Method: Viscosity was determined using a viscometer (DV2T, Brookfield, America).

[4] = tested on: HaCaT cells; experiment: Cytotoxicity of ILs, CCK-8 assay; type: cell-based, human; conditions: 24 h incubation
Method: The cytotoxicity of ILs to HaCaT cells was assessed using the Cell Counting Kit 8 (CCK-8) assay. The cell suspension (100 µL) was transferred to a 96-well plate at 8 × 10^3 cells/mL. Then, the 96-well plate was placed in a cell incubator. After 24 h, the medium was removed, and the cells were washed with phosphate-buffered saline (PBS, pH 7.4, 0.1 M). Then, ILs at different concentrations was added to each well for stimulation. After incubation for 24 h, CCK-8 solution (10 µL) was added to each well, followed by incubation for 2 h. The absorbance was measured at 450 nm using a microplate reader (SpectraMax iD5, Molecular Devices, America), and the cell viability was calculated.

[5] = tested on: rat skin; experiment: CLSM of rhodamine B penetration into rat skin in vivo, with or without endocytosis inhibitors; conditions: for Fluorescence intensity after treatment with endocytosis inhibitors: nystatin, indomethacin, chlorpromazine applied 1 h before
[6] = physchem; conditions: Solubilities
[7] = 20% IL (label = IL), negative current 0.3 mA, 10 h
[8] = aripiprazole in 20% IL (label = IL)
[9] = pH 4.5, aqueous buffer, thermodynamic from solid
[10] = pH 6.8, aqueous buffer, thermodynamic from solid
[11] = pH 9, aqueous buffer, thermodynamic from solid
[12] = water, thermodynamic from solid

Permeation applying IL-IS relative to IL alone ([1]; negative current 0.3 mA, 10 h)	Effect of current intensity on transdermal permeation ([1]; 10 h)	Increase of transdermal permeation by IL-IS ([1]; negative current 0.3 mA)	Increase of transdermal permeation by IL [1]	Increase of transdermal permeation by IS ([1]; negative current 0.3 mA)	Cumulative permeation after 24 h ([2]; drug in water)	Skin retention amount after 24 h ([2]; drug in water) [µg/cm^2]	solubility [6, 9] [mg/mL]	solubility [6, 10] [mg/mL]	solubility [6, 11] [mg/mL]	solubility [6, 12] [mg/mL]	SMILES	Electric conductivity [3] [ms/cm]	Viscosity [3] [mPa·s]	Effect of current intensity on retention amount ([1]; 10 h)	also measured
~2.6 fold	–	–	–	–	–	–	–	–	–	–	COc1cc2nc(N3CCN(C(=O)C4CCCO4)CC3)nc(N)c2cc1OC (stereo not drawn) [terazosin]	–	–	–	Permeation applying IL-IS relative to IS alone ([1]; negative current 0.3 mA, 10 h): ~5.2 fold
~16.5 fold	–	–	–	–	–	–	–	–	–	–	CN(Cc1ccc(C(C)(C)C)cc1)Cc1cccc2ccccc12 [butenafine]	–	–	–	Permeation applying IL-IS relative to IS alone ([1]; negative current 0.3 mA, 10 h): ~11.0 fold
about 14 fold	positive linear correlation	14 fold	little effect	little effect	negligible	1.1	0.152 ± 0.0163 (≈ 338 µM)	0.0085 ± 0.0032 (≈ 19 µM)	0.00079 ± 0.0005 (≈ 1.76 µM)	0.00094 ± 0.00015 (≈ 2.1 µM)	O=C1CCc2ccc(OCCCCN3CCN(c4cccc(Cl)c4Cl)CC3)cc2N1 [aripiprazole]	–	–	did not result in a significant difference	Retention in negative current relative to positive current ([1]; 10 h): ~3.0 fold; Permeation in negative current relative to positive current [1]: ~5.0 fold; Transdermal penetration versus [Cho] [Cin] concentration under IL-IS ([1]; [Cho] [Cin] 0–20%, negative current 0.3 mA, 10 h): increase with the rise in the concentration; Permeation at different pH values ([1]; pH 4.5, pH 6.8 and pH 9.0, 10 h, IS-related factors): no significant change; Cumulative permeation after 24 h ([2]; drug in 1% SDS): 0.35 µg/cm^2; Skin retention amount after 24 h ([2]; drug in 1% SDS): 2.6 µg/cm^2
–	not significantly enhanced	little effect	3.3 fold	1.6 fold	10.06 µg/cm^2	6.1	2.63 ± 0.648 (≈ 7350 µM)	0.0215 ± 0.0057 (≈ 60.1 µM)	2.23 ± 0.136 (≈ 6230 µM)	0.0285 ± 0.0007 (≈ 79.7 µM)	COc1ccc2c(c1)c(CC(=O)O)c(C)n2C(=O)c1ccc(Cl)cc1 [indomethacin]	–	–	did not result in a significant difference	–
–	not significantly enhanced	16 fold	31 fold	little effect	8.1 µg/cm^2	6.1	0.0183 ± 0.0072 (≈ 39.7 µM)	0.0135 ± 0.0005 (≈ 29.3 µM)	0.0068 ± 0.001 (≈ 14.8 µM)	0.0218 ± 0.0038 (≈ 47.3 µM)	CCOc1cc([C@@H](CS(C)(=O)=O)N2C(=O)c3cccc(NC(C)=O)c3C2=O)ccc1OC [apremilast]	–	–	did not result in a significant difference	Retention in negative current relative to positive current ([1]; 10 h): ~3.4 fold; Permeation in negative current relative to positive current [1]: about 3.2 fold; Transdermal permeation versus [Cho] [Cin] concentration ([2]; IL alone, 24 h): linear correlation; Skin retention amount versus [Cho] [Cin] concentration ([2]; [Cho] [Cin] 0–20%, IL alone): no significant change; solubility [6]: 0.0218 ± 0.0038 mg/mL (≈ 47.3 µM)

Second part, the compound before the results:

SMILES	Permeation applying IL-IS relative to IL alone ([1]; negative current 0.3 mA, 10 h)	Effect of current intensity on transdermal permeation ([1]; 10 h)	Increase of transdermal permeation by IL-IS ([1]; negative current 0.3 mA)	Increase of transdermal permeation by IL [1]	Increase of transdermal permeation by IS ([1]; negative current 0.3 mA)	Cumulative permeation after 24 h ([2]; drug in water)	Skin retention amount after 24 h ([2]; drug in water) [µg/cm^2]	solubility [6, 9] [mg/mL]	solubility [6, 10] [mg/mL]	solubility [6, 11] [mg/mL]	solubility [6, 12] [mg/mL]	Electric conductivity [3] [ms/cm]	Viscosity [3] [mPa·s]	Effect of current intensity on retention amount ([1]; 10 h)	also measured
C[N+](C)(C)CCO.O=C([O-])C(O)C(O)C(=O)O (stereo not drawn) [[Cho] [Tar]]	–	–	–	–	–	–	–	–	–	–	–	28.74 ± 0.01	1.48 ± 0.01	–	Permeation enhancement effect on aripiprazole when IL-IS applied [1, 7]: did not have significant permeation enhancement effects; Permeation/retention enhancement effect on apremilast ([2]; 24 h): did not have significant permeation/retention enhancement effects; Effect on promoting permeation/retention of indomethacin ([2]; 24 h): no significant effect
CC(=O)[O-].C[N+](C)(C)CCO [[Cho] [Ace]]	–	–	–	–	–	–	–	–	–	–	–	32.12 ± 0.03	1.69 ± 0.08	–	Permeation enhancement effect on aripiprazole when IL-IS applied [1, 7]: did not have significant permeation enhancement effects; Permeation/retention enhancement effect on apremilast ([2]; 24 h): did not have significant permeation/retention enhancement effects; 24 h cumulative permeability of indomethacin relative to water ([2]; indomethacin in 20% IL (label = IL)): 4.8 times; Cytotoxicity of ILs, descending order (from LD 50) [4]: [Cho] [Ole] > [Cho] [Cin] > [Cho] [Ger] > [Cho] [Ace] > [Cho] [Tar]; pH [3]: 9.37 and 9.37 ± 0.01
C[N+](C)(C)CCO.O=C([O-])/C=C/c1ccccc1 [[Cho] [Cin]]	–	–	–	–	–	–	–	–	–	–	–	18.60 ± 0.06	1.97 ± 0.04	–	Increase of 10 h cumulative permeation of aripiprazole with IL-IS compared to IL or IS alone ([1]; 20% IL (label = IL), negative current 0.3 mA): 14 fold; Permeation of aripiprazole after 24 h, in words [2, 8]: did not show a significant difference; Skin retention of aripiprazole after 24 h, in words [2, 8]: surpassed that of other ILs; pH [3]: 8.27 and 8.27 ± 0.01
CCN(CC)c1ccc2c(-c3ccccc3C(=O)O)c3ccc(=[N+](CC)CC)cc-3oc2c1 [rhodamine B]	–	–	–	–	–	–	–	–	–	–	–	–	–	–	Fluorescence intensity after treatment with endocytosis inhibitors ([5]; IL, IS and IL-IS groups): partially suppressed; Fluorescence intensity after treatment with endocytosis inhibitors ([5]; control gel group): no substantial alteration; Transmission pathway in skin (overlap with DAPI) ([5]; rat skin in vivo, 10 h): primarily occurred through accessory organs; CLSM fluorescence intensity and depth in skin, order of treatments ([5]; rat skin in vivo, 10 h, control gel, IL gel, IS, IL-IS): IL-IS > IS > IL > Control
CCCCCCCCCCCCOS(=O)(=O)[O-].[Na+] [1%SDS, sodium dodecyl sulfate]	–	–	–	–	–	–	–	–	–	–	–	–	–	–	Effect on promoting permeation/retention of indomethacin ([2]; 24 h): no significant effect
